pIC50: −log10 of the molar value. Read-outs that look alike come from different tables or passages of the source.
What was measured:
Hs578T [1] = test: Apoptosis assay (Cellomics, nucleus condensation); format: cell-based; conditions: Homo sapiens, Hs-578T, Table III, read-out: Apoptosis induction in Hs578T
Text: (§1) The Cellomics BioApplication (Thermo Fischer Cellomics Products, Pittsburgh, Pa.) is an automated image analysis algorithm that provides detailed analysis of phenotypes related to apoptosis. As one of the most prominent characteristics of apoptotics cell a nucleus condensation takes place. This can be measured fluorescence signal intensity using a CCD camera on fully automated microscope system. The Cellomics system is able to quantify the fluorescence intensity per single nucleus and calculates the variation of signal intensity in each cell population. […] Additionally the number of detected cell decreases normally in apoptotic cell populations. In detail 5000 cell per 96 well were labeled with DNA intercalating dye (Hoechst 33342, Sigma, Steinheim, Germany) to visualize the nucleus in a fluorescence microscope under live conditions. The apoptosis assay was performed 24 h and 48 h after addition of compound at concentrations 12.5 μM, 6.25 μM, 3.125 μM, 1.56 μM, 0.78 μM, 0.39 μM as well as DMSO control for 48 h.

C8161 = test: Apoptosis assay (Cellomics, nucleus condensation); format: cell-based; conditions: Homo sapiens, Table III, read-out: Apoptosis induction in C8161
Text: as §1

SF763 = test: Apoptosis assay (Cellomics, nucleus condensation); format: cell-based; conditions: Table III, read-out: Apoptosis induction in SF763
Text: as §1

U138 = test: Apoptosis assay (Cellomics, nucleus condensation); format: cell-based; conditions: Table III, read-out: Apoptosis induction in U138
Text: as §1

SF126 = test: Apoptosis assay (Cellomics, nucleus condensation); format: cell-based; conditions: Homo sapiens, SF-126, Table III, read-out: Apoptosis induction in SF126
Text: as §1

viable cells in culture = test: Cell viability assay at 10 μM (CellTiter-Glo, Table VII); format: cell-based; conditions: compound 10 μM, 72 h;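 note: graded A 0-20%; B 21-40%; C 41-60%; D over 60% viable cells relative to DMSO control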
Experimental: The CellTiter-Glo® Luminescent Cell Viability Assay (Promega Corporation. Madison, Wis., USA) is method a determining the number of viable cells in culture based on quantification of the ATP being present which is an indicator of metabolically active cells was used according to manufacturers protocol. In detail the assay was performed in a 96 well format were 1000 cells/well were incubated with compound at concentration 10 μM as well as DMSO control for 72 h in 100 μl cell culture medium. Percentage of inhibition was calculated compared to ATP amount of DMSO control.

Hs578T [2] = test: Matrigel outgrowth assay/branching assay; format: cell-based; conditions: Homo sapiens, Hs-578T; HS578T cell line; Table Ib; read-out: Total branching inhibition in Matrigel HS578T
Summary of the method: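 Matrigel 3 mg/ml, polymerized 1 h 37° C; 5000 cells/well + cmpd 3.125/1.56/0.78 μM or DMSO. Imaged 48/72/96 h, 5× objective. Positive = total branching block.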

indicated cell line = test: Wound healing migration assay (Table IV); format: cell-based; conditions: compounds at 12.5, 6.25, 3.125 μM, 48 h-72 h
Experimental: This method mimics cell migration during wound healing in vivo. The basic steps involve creating a “wound” in a cell monolayer, capturing the images at the beginning and at regular intervals during cell migration to close the wound, and comparing the images to quantify the migration rate of the cells. In detail, 150000 cell/24 well have been seeded and allowed to form a monolayer overnight. Subsequently a “wound” or “scratch” has been performed with a 1000 μl pipette tip. The STDV of wound size is normally below 10% at time point t0. The assay was stopped by fixation with 0.05% Crystal violet/20% methanol when control scratches were closed. The assay was terminated between 48 h and 72 h depending on the migration potential of the indicated cell line. The “wounds” were visualized with a Zeiss Axiovert S100 microscope (Carl Zeiss UK, Welwyn Garden City, UK). The tested compounds were used at 12.5 μM, 6.25, 3.125 μM and DMSO control. IC50 values have been calculated as 50% wound size in between t0 and t48 or t72.

tumor cell = test: Matrigel outgrowth assay/branching assay (Table Va); format: cell-based
Experimental: The Matrigel outgrowth assay is based on the ability of tumor cell to penetrate a solid gel of extracellular matrix proteins mimicking the metastasis formation in vivo. While cells with low invasive potential appear as roundish cell or cell cluster, cells with high invasive potential penetrate the Matrigel and form polymorphic structures. In detail 65 μl of Matrigel matrix (Matrigel™ Matrix, BD Biosciences, Bedford, Mass., USA) with a concentration of 3 mg/ml have been polymerized in 96 well plates for 1 h at 37° C. Subsequently 5000 cell/well were seeded into each well containing cell culture medium and indicated compound with concentrations of 3.125 μM, 1.56 μM and 0.78 μM as well as DMSO control. After 48 h, 72 h and 96 h images of cell were taken on an inverted microscope using a 5× objective (Zeiss Axiovert S100 microscope Carl Zeiss UK, Welwyn Garden City, UK). Only compound concentrations were total branching inhibition was evident were accounted as positive. Method was used as previously described, with some modifications (Thompson E W, et al. Association of increased basement membrane invasiveness with absence of estrogen receptor and expression of vimentin in human breast cancer cell lines. J Cell Physiol 1992; 150:534-44).

cells = test: Boyden chamber migration assay (Table VI); format: cell-based; conditions: Homo sapiens, Hs-578T, 16 h, Hs578T cells; 16 h migration
Experimental: The Boyden chamber assay is based on a chamber of two medium-filled compartments separated by a microporous membrane of 8 μM (Cell culture insert 8.0 μM pore size, BD Biosciences, Bedford, Mass.). The boyden chamber migration assays were carried out according to the supplier's instructions. In general, 20000 cells are placed in the upper compartment with medium containing 0% FCS plus 0.1% BSA and are allowed to migrate 16 h through the pores of the membrane into the lower compartment, which is filled with cell culture medium containing 10% FCS as chemotactic agents. The cells remaining in the insert were removed with a cotton swab, and the cells on the bottom of the filter were fixed and counted. (Zhang Y X, et al. AXL is a potential target for therapeutic intervention in breast cancer progression. Cancer Res. 2008; 68:1905-15).

U118 = test: Apoptosis assay (Cellomics, nucleus condensation); format: cell-based; conditions: Table III, read-out: Apoptosis induction in U118
Text: as §1

[3] = Homo sapiens, HCT-116, HCT116 def, read-out: percentage (%) of viable cells HCT 116def
[4] = Homo sapiens, HCT-116, HCT116 wt, read-out: percentage (%) of viable cells HCT 116wt
[5] = Homo sapiens, HT-29, HT29, read-out: percentage (%) of viable cells HT29
[6] = Homo sapiens, NCI-H358, H358, read-out: percentage (%) of viable cells H358
[7] = Homo sapiens, NCI-H1650, H1650, read-out: percentage (%) of viable cells H1650
[8] = Homo sapiens, NCI-H1666, H1666, read-out: percentage (%) of viable cells H1666
[9] = Homo sapiens, NCI-H1975, H1975, read-out: percentage (%) of viable cells H1975
[10] = Homo sapiens, NCI-H1993, H1993, read-out: percentage (%) of viable cells H1993
[11] = Homo sapiens, A549, read-out: percentage (%) of viable cells A549
[12] = Homo sapiens, HCC827, read-out: percentage (%) of viable cells HCC827
[13] = Homo sapiens, SW480, read-out: percentage (%) of viable cells SW480
[14] = RKO, read-out: percentage (%) of viable cells RKO
[15] = Homo sapiens, C8161 cells, read-out: IC50 Wound healing Assay C8161
[16] = SF763 cells, read-out: IC50 Wound healing Assay SF763
[17] = Homo sapiens, C8161 cells, read-out: Total branching inhibition in Matrigel C8161
[18] = Homo sapiens, Hs-578T, Hs578T cells, read-out: Total branching inhibition in Matrigel Hs578T
[19] = U118 cells, read-out: Total branching inhibition in Matrigel U118
[20] = U138 cells, read-out: Total branching inhibition in Matrigel U138

| SMILES | pIC50 (Hs578T [1]) | pIC50 (C8161) | pIC50 (SF763) | pIC50 (U138) | pIC50 (SF126) | viability at 10 µM (viable cells in culture; [3]) [%] | viability at 10 µM (viable cells in culture; [4]) [%] | viability at 10 µM (viable cells in culture; [5]) [%] | viability at 10 µM (viable cells in culture; [6]) [%] | viability at 10 µM (viable cells in culture; [7]) [%] | viability at 10 µM (viable cells in culture; [8]) [%] | viability at 10 µM (viable cells in culture; [9]) [%] | viability at 10 µM (viable cells in culture; [10]) [%] | viability at 10 µM (viable cells in culture; [11]) [%] | viability at 10 µM (viable cells in culture; [12]) [%] | viability at 10 µM (viable cells in culture; [13]) [%] | viability at 10 µM (viable cells in culture; [14]) [%] | pIC50 (indicated cell line; [15]) | pIC50 (indicated cell line; [16]) | pIC50 (tumor cell; [17]) | other results |
| --- | --- | --- | --- | --- | --- | --- | --- | --- | --- | --- | --- | --- | --- | --- | --- | --- | --- | --- | --- | --- | --- |
| COc1cc2c(Oc3ccc(NS(=O)(=O)c4ccccc4C#N)cc3F)ccnc2cc1OCCCN1CCN(C)CC1 [Example 15, 2-Cyano-N-(3-fluoro-4-{6-methoxy-7-[3-(4-methyl-piperazin-1-yl)-propoxy]-quinolin-4-yloxy}-phenyl)-benzenesulfonamide] | ≥ 4.90 | ≥ 4.90 | ≥ 4.90 | ≥ 4.90 | ≥ 4.90 | > 60 | > 60 | 41 to 60 | 41 to 60 | 41 to 60 | 41 to 60 | 41 to 60 | 21 to 40 | > 60 | > 60 | 21 to 40 | 41 to 60 | 4.30 to 4.90 | ≥ 4.90 | ≥ 5.30 | melting point: 109 to 111 °C; pIC50 (Hs578T [2]): ≥ 5.00; pIC50 (tumor cell; [18]): ≥ 5.30; pIC50 (tumor cell; [19]): ≥ 5.30; pIC50 (tumor cell; [20]): ≥ 5.30; pIC50 (cells): ≥ 5.30 |
| COc1cc2c(Oc3ccc(NS(=O)(=O)c4ccc(F)cc4F)cc3F)ccnc2cc1OCCCN1CCN(C)CC1 [Example 16, 2,4-Difluoro-N-(3-fluoro-4-{6-methoxy-7-[3-(4-methyl-piperazin-1-yl)-propoxy]-quinolin-4-yloxy}-phenyl)-benzenesulfonamide] | ≥ 4.90 | ≥ 4.90 | ≥ 4.90 | ≥ 4.90 | ≥ 4.90 | 41 to 60 | 41 to 60 | 21 to 40 | 0 to 20 | 21 to 40 | 41 to 60 | 0 to 20 | 21 to 40 | 41 to 60 | 41 to 60 | 0 to 20 | 21 to 40 | 4.30 to 4.90 | 4.30 to 4.90 | ≥ 5.30 | melting point: 99 to 102 °C; pIC50 (tumor cell; [18]): 4.30 to 5.30; pIC50 (tumor cell; [19]): 4.30 to 5.30; pIC50 (tumor cell; [20]): ≥ 5.30; pIC50 (cells): ≥ 5.30 |
| COc1cc2c(Oc3ccc(NS(=O)(=O)c4cc(F)ccc4F)cc3F)ccnc2cc1OCC1CCCNC1 (centres unmarked) [Example 80, 2,5-Difluoro-N-{3-fluoro-4-[6-methoxy-7-(piperidin-3-ylmethoxy)-quinolin-4-yloxy]-phenyl}-benzenesulfonamide] | ≥ 4.90 | 4.30 to 4.90 | 4.30 to 4.90 | 4.30 to 4.90 | 4.30 to 4.90 | 21 to 40 | 21 to 40 | 41 to 60 | 0 to 20 | > 60 | 21 to 40 | 0 to 20 | 0 to 20 | > 60 | 21 to 40 | 0 to 20 | 0 to 20 | ≥ 4.90 | ≥ 4.90 | ≥ 5.30 | pIC50 (U118): ≥ 4.90; pIC50 (tumor cell; [18]): ≥ 5.30; pIC50 (tumor cell; [19]): ≥ 5.30; pIC50 (tumor cell; [20]): 4.30 to 5.30; pIC50 (cells): ≥ 5.30 |
| CCN(CC)CCCOc1cc2nccc(Oc3ccc(NS(=O)(=O)c4ccccc4C(F)(F)F)cc3F)c2cc1OC [Example 101, N-{4-[7-(3-Diethylamino-propoxy)-6-methoxy-quinolin-4-yloxy]-3-fluoro-phenyl}-2-trifluoromethyl-benzenesulfonamide] | ≥ 4.90 | ≥ 4.90 | ≥ 4.90 | ≥ 4.90 | 4.30 to 4.90 | 21 to 40 | 21 to 40 | 0 to 20 | 0 to 20 | 41 to 60 | 41 to 60 | 41 to 60 | 21 to 40 | 41 to 60 | 21 to 40 | 0 to 20 | 0 to 20 | 4.30 to 4.90 | 4.30 to 4.90 | ≥ 5.30 | pIC50 (Hs578T [2]): 4.60 to 5.00; pIC50 (tumor cell; [18]): 4.30 to 5.30; pIC50 (tumor cell; [19]): ≥ 5.30; pIC50 (tumor cell; [20]): 4.30 to 5.30; pIC50 (cells): ≥ 5.30 |
